“And” between values parts separate entries of the source, which are not always exact repeats. Equal entries are not always repeated.
Legend:
[1] = for vapor or sublimation pressure: Closed cell (Static) method
[2] = molar heat capacity at constant volume; settings: Vacuum adiabatic calorimetry

CCCCO [butan-1-ol]
[1], Liquid
Settings	vapor or sublimation pressure
496.62 K	1529 kPa
497.54 K	1549 kPa
497.6 K	1555 kPa
497.65 K	1555 kPa
497.7 K	1559 kPa
497.97 K	1559 kPa
506.74 K	1834 kPa
506.84 K	1834 kPa
507.01 K	1854 kPa and 1844 kPa
507.23 K	1844 kPa
507.25 K	1844 kPa
507.3 K	1854 kPa
518.64 K	2241 kPa
518.91 K	2246 kPa
518.99 K	2248 kPa
519.06 K	2248 kPa
519.2 K	2252 kPa
528.31 K	2622 kPa
531.38 K	2776 kPa
532.65 K	2804 kPa
533.03 K	2834 kPa
533.2 K	2834 kPa
533.4 K	2838 kPa
537.47 K	3029 kPa
539.69 K	3127 kPa
541.16 K	3205 kPa
541.95 K	3245 kPa
542.81 K	3295 kPa
543.19 K	3293 kPa
543.3 K	3315 kPa
543.89 K	3315 kPa
546.79 K	3456 kPa
548.49 K	3579 kPa
550.45 K	3647 kPa
555.53 K	3983 kPa
555.6 K	3945 kPa
555.7 K	3941 kPa
556.16 K	3963 kPa
557.65 K	4075 kPa
559.05 K	4168 kPa
559.33 K	4181 kPa

Settings	mass density [kg/m3]	molar heat capacity at constant volume [J/K/mol]	specific volume [m3/kg]
[1], 520 K, Gas, isochoric method	–	–	0.01653
[1], 520 K, Liquid, isochoric method	–	–	0.001879
[1], 530 K, Gas, isochoric method	–	–	0.01351
[1], 530 K, Liquid, isochoric method	–	–	0.001974
[1], 533.45 K, Gas, isochoric method	–	–	0.01243
[1], 533.45 K, Liquid, isochoric method	–	–	0.002001
[1], 540 K, Gas, isochoric method	–	–	0.01078
[1], 540 K, Liquid, isochoric method	–	–	0.002103
[1], 540.57 K, Liquid, Isochoric Breaking Point	470	–	–
[1], 547.36 K, Gas, Isochoric Breaking Point	113.76	–	–
[1], 550 K, Gas, isochoric method	–	–	0.008333
[1], 550 K, Liquid, isochoric method	–	–	0.002288
[1], 558.65 K, Gas, Isochoric Breaking Point	167.7	–	–
[1], 560 K, Gas, isochoric method	–	–	0.005682
[1], 560 K, Liquid, isochoric method	–	–	0.002717
[1], 561 K, Gas, isochoric method	–	–	0.005319
[1], 561 K, Liquid, isochoric method	–	–	0.002792
[1], 561.08 K, Liquid, Isochoric Breaking Point	345.9	–	–
[1], 561.85 K, Gas, Isochoric Breaking Point	203.9	–	–
[1], 562 K, Gas, isochoric method	–	–	0.004879
[1], 562 K, Liquid, isochoric method	–	–	0.002985
[1], 563 K, Gas, isochoric method	–	–	0.0046
[1], 563 K, Liquid, isochoric method	–	–	0.003108
[1], 563.04 K, Liquid, Isochoric Breaking Point	270	–	–
[2], 520 K, Gas, Specific volume=0.016529 m3/kg	–	236.45	–
[2], 520 K, Liquid, Specific volume=0.001879 m3/kg	–	220.88	–
[2], 530 K, Gas, Specific volume=0.013513 m3/kg	–	243.12	–
[2], 530 K, Liquid, Specific volume=0.001974 m3/kg	–	220.22	–
[2], 533.45 K, Gas, Specific volume=0.012425 m3/kg	–	246.16	–
[2], 533.45 K, Liquid, Specific volume=0.002001 m3/kg	–	220.22	–
[2], 540 K, Gas, Specific volume=0.010776 m3/kg	–	252.01	–
[2], 540 K, Liquid, Specific volume=0.002103 m3/kg	–	220.14	–
[2], 550 K, Gas, Specific volume=0.008333 m3/kg	–	260.91	–
[2], 550 K, Liquid, Specific volume=0.002288 m3/kg	–	220.88	–
[2], 560 K, Gas, Specific volume=0.005682 m3/kg	–	281.74	–
[2], 560 K, Liquid, Specific volume=0.002717 m3/kg	–	228.37	–
[2], 561 K, Gas, Specific volume=0.005319 m3/kg	–	286.85	–
[2], 561 K, Liquid, Specific volume=0.002792 m3/kg	–	235.71	–
[2], 562 K, Gas, Specific volume=0.004879 m3/kg	–	294.26	–
[2], 562 K, Liquid, Specific volume=0.002985 m3/kg	–	247.57	–
[2], 563 K, Gas, Specific volume=0.0046 m3/kg	–	303.9	–
[2], 563 K, Liquid, Specific volume=0.003108 m3/kg	–	258.68	–
[2], 563.21 K, Fluid (supercritical or subcritical phases), Mass density=270 kg/m3	–	356.16	–
[2], 563.39 K, Fluid (supercritical or subcritical phases), Mass density=270 kg/m3	–	317.24	–
[2], 563.57 K, Fluid (supercritical or subcritical phases), Mass density=270 kg/m3	–	306.86	–
[2], 564.81 K, Fluid (supercritical or subcritical phases), Mass density=270 kg/m3	–	294.63	–
[2], 564.99 K, Fluid (supercritical or subcritical phases), Mass density=270 kg/m3	–	292.04	–
[2], 565.17 K, Fluid (supercritical or subcritical phases), Mass density=270 kg/m3	–	290.19	–
[2], 566.6 K, Fluid (supercritical or subcritical phases), Mass density=270 kg/m3	–	282.4	–
[2], 566.77 K, Fluid (supercritical or subcritical phases), Mass density=270 kg/m3	–	280.18	–
[2], 566.95 K, Fluid (supercritical or subcritical phases), Mass density=270 kg/m3	–	279.81	–
[2], 567.13 K, Fluid (supercritical or subcritical phases), Mass density=270 kg/m3	–	277.59	–
[2], 569.09 K, Fluid (supercritical or subcritical phases), Mass density=270 kg/m3	–	269.8	–
[2], 569.26 K, Fluid (supercritical or subcritical phases), Mass density=270 kg/m3	–	269.06	–
[2], 569.44 K, Fluid (supercritical or subcritical phases), Mass density=270 kg/m3	–	268.32	–
[2], 573.52 K, Fluid (supercritical or subcritical phases), Mass density=270 kg/m3	–	259.06	–
[2], 573.67 K, Fluid (supercritical or subcritical phases), Mass density=270 kg/m3	–	257.94	–
[2], 582.51 K, Fluid (supercritical or subcritical phases), Mass density=270 kg/m3	–	246.83	–
[2], 582.69 K, Fluid (supercritical or subcritical phases), Mass density=270 kg/m3	–	246.08	–
[2], 582.86 K, Fluid (supercritical or subcritical phases), Mass density=270 kg/m3	–	246.08	–
[2], 583.22 K, Fluid (supercritical or subcritical phases), Mass density=270 kg/m3	–	245.34	–
[2], 590.92 K, Fluid (supercritical or subcritical phases), Mass density=270 kg/m3	–	240.15	–
[2], 591.07 K, Fluid (supercritical or subcritical phases), Mass density=270 kg/m3	–	240.52	–
[2], 591.23 K, Fluid (supercritical or subcritical phases), Mass density=270 kg/m3	–	239.41	–
[2], 591.62 K, Fluid (supercritical or subcritical phases), Mass density=270 kg/m3	–	239.41	–
[2], 598.76 K, Fluid (supercritical or subcritical phases), Mass density=270 kg/m3	–	235.34	–
[2], 599.1 K, Fluid (supercritical or subcritical phases), Mass density=270 kg/m3	–	236.08	–
[2], 599.28 K, Fluid (supercritical or subcritical phases), Mass density=270 kg/m3	–	235.71	–
[2], 599.63 K, Fluid (supercritical or subcritical phases), Mass density=270 kg/m3	–	234.97	–
[2], 605.17 K, Fluid (supercritical or subcritical phases), Mass density=270 kg/m3	–	232.74	–
[2], 605.35 K, Fluid (supercritical or subcritical phases), Mass density=270 kg/m3	–	232.37	–
[2], 606.21 K, Fluid (supercritical or subcritical phases), Mass density=270 kg/m3	–	232	–
[2], 606.56 K, Fluid (supercritical or subcritical phases), Mass density=270 kg/m3	–	232	–
[2], 609.49 K, Fluid (supercritical or subcritical phases), Mass density=270 kg/m3	–	231.26	–
[2], 609.67 K, Fluid (supercritical or subcritical phases), Mass density=270 kg/m3	–	230.52	–
[2], 609.84 K, Fluid (supercritical or subcritical phases), Mass density=270 kg/m3	–	230.89	–
[2], 621.18 K, Fluid (supercritical or subcritical phases), Mass density=270 kg/m3	–	227.55	–
[2], 621.53 K, Fluid (supercritical or subcritical phases), Mass density=270 kg/m3	–	226.81	–
[2], 622.22 K, Fluid (supercritical or subcritical phases), Mass density=270 kg/m3	–	226.07	–
[2], 637.42 K, Fluid (supercritical or subcritical phases), Mass density=270 kg/m3	–	225.33	–
[2], 637.77 K, Fluid (supercritical or subcritical phases), Mass density=270 kg/m3	–	223.11	–

[1], isochoric method
Settings	mass density [kg/m3]
528.31 K, 2642 kPa, Gas	113.76
531.38 K, 2775 kPa, Gas	167.7
533.03 K, 2834 kPa, Gas	203.9
539.69 K, 3127 kPa, Gas	113.76
543.3 K, 3315 kPa, Gas	113.76
543.89 K, 3315 kPa, Gas	167.7
546.79 K, 3456 kPa, Gas	113.76
548.15 K, 3531 kPa, Gas	113.76
548.49 K, 3579 kPa, Gas	203.9
550.05 K, 4256 kPa, Liquid	470
550.45 K, 3647 kPa, Gas	167.7
551.66 K, 3610 kPa, Gas	113.76
555.53 K, 3893 kPa, Gas	167.7
555.7 K, 3941 kPa, Gas	203.9
557.65 K, 4020 kPa, Gas	167.7
558.64 K, 3788 kPa, Gas	113.76
559.33 K, 4118 kPa, Gas	203.9
561.09 K, 6138 kPa, Liquid	470
562.14 K, 4275 kPa, Gas	167.7
563.04 K, 4340 kPa, Gas	203.9
564.02 K, 4461 kPa, Liquid	270
565.29 K, 4559 kPa, Liquid	345.9
568.44 K, 4598 kPa, Gas	203.9
569.15 K, 4559 kPa, Gas	167.7
569.8 K, 4775 kPa, Liquid	270
572.54 K, 5138 kPa, Liquid	345.9
574.48 K, 4178 kPa, Gas	113.76
577.73 K, 5059 kPa, Gas	203.9
580.8 K, 5000 kPa, Gas	167.7
582.21 K, 5647 kPa, Liquid	270
583.19 K, 6118 kPa, Liquid	345.9
584.19 K, 10275 kPa, Liquid	470
588.79 K, 5613 kPa, Gas	203.9
590.87 K, 4586 kPa, Gas	113.76
593.16 K, 5452 kPa, Gas	167.7
593.16 K, 6393 kPa, Liquid	270
600.42 K, 6162 kPa, Gas	203.9
604.17 K, 5852 kPa, Gas	167.7
605.17 K, 4925 kPa, Gas	113.76
605.88 K, 7197 kPa, Liquid	270
606.77 K, 8197 kPa, Liquid	345.9
614.97 K, 6834 kPa, Gas	203.9
616.27 K, 6275 kPa, Gas	167.7
616.28 K, 5197 kPa, Gas	113.76

From the NIST ThermoML archive (doi:10.1016/j.fluid.2012.09.026)
